“Also recorded” adds a separate entry of the source.
Tests used:
[1] = test system: mouse model of cerebral aneurysms (PDGFRβ p.559_562del); test: Mouse cerebral aneurysm model with PDGFRβ p.559_562del, low-dose treatment from day 7, maximum diameter of basilar artery (Example 3)
Procedure: After deep anesthesia with isoflurane, the mice were decapitated, and the cerebral blood vessels were exposed to measure the maximum diameter of the basilar artery. Each drug administration condition was tested on three mice.

[2] = test system: mouse model of cerebral aneurysms (PDGFRβ p.559_562del); test: Mouse cerebral aneurysm model with AAV-introduced PDGFRβ p.559_562del, basilar artery size (Example 2); format: in vivo; conditions: mice with AAV PDGFRβ p.559_562del, daily i.p. sunitinib 40, axitinib 25, dasatinib 10 mg/kg/day, 28 days post-infection, versus vehicle, sunitinib p<0.05 (Mann-Whitney U)
Excerpt: A mouse CA (cerebral aneurysm) model was constructed by applying adeno-associated virus (AAV) around the non-branching region of the basilar artery. HEK293T cells were transfected with pHelper vector, pRC vector, and a pAAV vector comprising the target gene. After culturing, AAV was harvested using the iodixanol gradient method. After determining the AAV serotype, it was mixed with a hydrogel of PBS comprising 15% Pluronic F-127. The virus concentrations (vg/mL) in the hydrogels of AAV-CMV-EGFP, AAV-CMV-PDGFRβ, and AAV-CMV-PDGFRβ p559_562del were 2×10^13, 1×10^12, and 1×10^12, respectively.
Male C57BL/6N mice aged 8-11 weeks (CLEA Japan) were deeply anesthetized with medetomidine (0.3 mg/kg), midazolam (4 mg/kg), and butorphanol (5 mg/kg) administered intraperitoneally (i.p.). The basilar artery was exposed as previously described (Yonekura et al., 2004). Three microliters of hydrogel were applied to the basilar artery and removed after 5 minutes. This application was repeated two more times. The mice were divided into three subgroups (control, PDGFRβ(wt), and PDGFRβ(mutant)). […]
To evaluate the effect of the virus, sections were stained with Elastica Van Gieson (EVG) method, selecting the largest artery section from each brain sample for measurement. […] The area and perimeter of the stained sites were calculated using FUJI-ImageJ software (J. Schindelin et al., Nature Methods, 2012).

[3] = test system: AHNAK mutation-induced cerebral aneurysm model mice; test: AHNAK mutation-induced (AHNAKmini p.G3819A) cerebral aneurysm model mice, maximum diameter of cerebral blood vessels (Example 5); format: in vivo, mouse; conditions: day 7 to day 28 post-infection, 20 μL/g/day; PD173074 0.1 mg/mL, LY294002 0.02 mg/mL, staurosporine 0.02 mg/mL; versus non-administered group; PD173074 p<0.05
Excerpt: To introduce AHNAK mutations into experimental animals, it is necessary to incorporate the gene into viral vectors or other vehicles. However, AHNAK is a large protein with a length of 5890 amino acids, making it difficult to incorporate its full-length gene into viral vectors. […] AHNAK has many repeat structures (CRU: Consensus Central Repeat Unit), and the mutation sites are also within the CRU. Therefore, we designed a low-molecular-weight version of AHNAK (AHNAKmini) that combines the […] in this order. […] The amino acid sequence of AHNAKmini is shortened to 1943 amino acids with an N-terminal FLAG tag.
The DNA encoding the AHNAKmini with the p.G3819A mutation was chemically synthesized and subcloned directly into a pAAV vector to prepare pAAV-CMV-AHNAK (SEQ ID NO: 19). This was further modified to have the mutation corresponding to p.G3819A (specifically, changing the 3156th guanine (g) in SEQ ID NO: 19 to cytosine (c)) to prepare pAAV-CMV-AHNAK p.G3819A. HEK293T cells were transfected with the pHelper vector, pRC vector, and pAAV-CMV-AHNAK p.G3819A, and cultured, after which AAV produced by the iodixanol gradient method was harvested (AAV-CMV-AHNAK p.G3819A). As a control, AAV encoding EGFP (AAV-CMV-EGFP) was similarly prepared. After determining the […] of AAV, it was mixed with a hydrogel of PBS comprising 15% Pluronic F-127.
Male C57BL/6N mice aged 8-11 weeks (CLEA Japan) were exposed to the middle cerebral artery according to the protocol described in A. Tamura et al., Journal of Cerebral Blood Flow and Metabolism, 1: 53-60 (1981). The hydrogel comprising AAV was applied multiple times at 5-minute intervals. The skull was covered with temporal fascia, the soft tissue was returned to its original position, and the skin was sutured. The total application amounts of AAV-CMV-EGFP and AAV-CMV-AHNAK p.G3819A were 2.4×10^10 vg and 3.3×10^11 vg, respectively. […]
After decapitation, the cerebral blood vessels were exposed, and the maximum diameter of the cerebral blood vessels was measured. […]

Cc1nc(Nc2ncc(C(=O)Nc3c(C)cccc3Cl)s2)cc(N2CCN(CCO)CC2)n1 [dasatinib]
Maximum diameter of basilar artery (cerebral vessel expansion) compared to sunitinib ([1]; i.p. daily day 7 to day 28, axitinib 0.76, dasatinib 1.0, sunitinib 0.78 mg/kg/day, three mice each, dasatinib vs sunitinib p=0.040): significantly suppressed cerebral vessel expansion
Treatment effect on cerebral artery expansion (rank order) ([1]; low concentration ranges, administration from day 7 after mutation introduction): highest for dasatinib; also recorded: high treatment/preventive effects
Enlargement (dilation) of basilar artery [2]: suppressed this arterial dilation

CCN(CC)CCCCNc1ncc2cc(-c3cc(OC)cc(OC)c3)c(NC(=O)NC(C)(C)C)nc2n1 [PD173074]
Increase in maximum cerebral vessel diameter [3]: significant suppression

CN[C@@H]1C[C@H]2O[C@@](C)([C@@H]1OC)n1c3ccccc3c3c4c(c5c6ccccc6n2c5c31)C(=O)NC4 [staurosporine]
Increase in maximum cerebral vessel diameter [3]: suppressed in all mice

CNC(=O)c1ccccc1Sc1ccc2c(/C=C/c3ccccn3)n[nH]c2c1 [axitinib]
Enlargement (dilation) of basilar artery ([2]; listed as avitinib): suppressed this arterial dilation

O=c1cc(N2CCOCC2)oc2c(-c3ccccc3)cccc12 [LY294002]
Increase in maximum cerebral vessel diameter [3]: suppressed in all mice
